In assay [1] the test system is Factor Xa. The following applies: known from the literature; cited from earlier work.
Assay [2] concerns various animal models of thrombotic disease. The conditions noted are these: cited from earlier work.
Assay [3] deals with human, rat or rabbit blood plasma (prothrombin time). Description: Measurement of Anticoagulant Activity, prothrombin time (PT) test in vitro (test c). The following applies: plasma incubated 10 minutes at 37° C., species not given. The protocol:
c) Measurement of Anticoagulant Activity
An in vitro assay whereby human, rat or rabbit venous blood was collected and added directly to a sodium citrate solution (3.2 g/100 ml, 9 parts blood to 1 part citrate solution). Blood plasma was prepared by centrifugation (1000 g, 15 minutes) and stored at 2-4° C. Conventional prothrombin time (PT) tests were carried out in the presence of various concentrations of a test compound and the concentration of test compound required to double the clotting time, hereinafter referred to as CT2, was determined. In the PT test, the test compound and blood plasma were incubated at 37° C. for 10 minutes. Tissue thromboplastin with calcium (Sigma Limited, Poole, England) was added. Fibrin formation and the time required for a clot to form were determined.

The target of assay [4] is human Factor Xa (Homo sapiens, UniProt P00742). Description: Measurement of Factor Xa Inhibition (test a, chromogenic substrate S-2765). The format is biochemical. The following applies: pH 7.5, 37° C., human Factor Xa 0.001 Units/ml. The protocol: a) Measurement of Factor Xa Inhibition
Chain of human Factor Xa (P00742 235-488 limits assumed): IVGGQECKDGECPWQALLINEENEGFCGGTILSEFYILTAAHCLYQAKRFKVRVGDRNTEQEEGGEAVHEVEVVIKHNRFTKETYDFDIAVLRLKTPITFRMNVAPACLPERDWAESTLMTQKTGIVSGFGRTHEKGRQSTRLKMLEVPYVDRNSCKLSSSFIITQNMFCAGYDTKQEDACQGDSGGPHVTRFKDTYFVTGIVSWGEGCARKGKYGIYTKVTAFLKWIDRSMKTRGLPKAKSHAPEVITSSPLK
Chain of human Factor Xa (P00742 41-179 partner limits assumed): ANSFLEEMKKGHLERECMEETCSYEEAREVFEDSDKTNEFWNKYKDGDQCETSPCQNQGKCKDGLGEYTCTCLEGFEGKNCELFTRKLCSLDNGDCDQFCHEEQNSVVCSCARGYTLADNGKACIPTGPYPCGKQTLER
An in vitro assay system was carried out based on the method of Kettner et al., J. Biol. Chem., 1990, 265, 18289-18297, whereby various concentrations of a test compound were dissolved in a pH7.5 buffer containing 0.5% of a polyethylene glycol (PEG 6000) and incubated at 37° C. with human Factor Xa (0.001 Units/ml, 0.3 ml) for 15 minutes. The chromogenic substrate S-2765 (KabiVitum AB, 20 μM) was added and the mixture was incubated at 37° C. for 20 minutes whilst the absorbance at 405 nm was measured. The maximum reaction velocity (Vmax) was determined and compared with that of a control sample containing no test compound. Inhibitor potency was expressed as an IC50 value.

The target in assay [5] is T1, human thrombin (Homo sapiens, UniProt P00734).
T1 construct: cleaves prothrombin to generate thrombin
Description: Measurement of Thrombin Inhibition (test b, chromogenic substrate S-2238). The format is biochemical. The conditions noted are these: human thrombin 0.005 Units/ml, S-2238 7 μM. The protocol: b) Measurement of Thrombin Inhibition
The procedure of method a) was repeated except that human thrombin (0.005 Units/ml) and the chromogenic substrate S-2238 (KabiVitum AB, 7 μM) were employed.

Bounds are passed on as bounds.

For “tick anticoagulant protein (TAP): protein, specific Factor Xa inhibitor which possesses antithrombotic properties (YNRLCIKPRDWIDECDSNEGGERAYFRNGKGGCDSFWICPEDHTGADYYSSYRDCFNACI; UniProt P17726 1-60, looked up)”, the “Factor Xa inhibition (specificity, in words)” value in assay [1] is on record as “specific Factor Xa inhibitors”. Also, the “antithrombotic properties (in words)” value in assay [2] is reported as “possess antithrombotic properties”.
Regarding `CCSCCNC(=O)C1CN(S(=O)(=O)c2ccc3cc(Br)ccc3c2)CCN1C(=O)C1CCN(c2ccncc2)CC1` (stereo not shown) [Example 1, 4-(6-Bromonaphth-2-ylsulphonyl)-2-[N-(2-(ethylthio)ethyl)carbamoyl]-[1-1-(4-pyridyl)piperidin-4-ylcarbonyl]piperazine], the “CT2 (PT), concentration of test compound required to double the clotting time” value in assay [3] turned out to be 1 µM. For the same molecule, the IC50 in assay [4] is 4 nM; in assay [5], > 5000 nM.

B1: antistasin: protein, specific Factor Xa inhibitor which possesses antithrombotic properties (protein, UniProt P15358 18-136, looked up)
Antistasin: QGPFGPGCEEAGCPEGSACNIITDRCTCSGVRCRMHCPHGFQRSRYGCEFCKCRLEPMKATCDISECPEGMMCSRLTNKCDCKIDINCRKTCPNGLKRDKLGCEYCECRPKRKLIPRLS
Turning to B1, the “Factor Xa inhibition (specificity, in words)” value in assay [1] is “specific Factor Xa inhibitors”. Also, the “antithrombotic properties (in words)” value in assay [2] is “possess antithrombotic properties”.

The values are drawn from patent US6022869A, “Aminoheterocyclic compounds with antithrombotic/anticoagulant effect” (Zeneca Limited, priority 1996, dated 2000).
